According to patent US20090318555A1, “Treatment of Vertigo with Acetyl-L-Leucine” (PIERRE FABRE MEDICAMENT, priority 2006, published 2009):

Columns and labels:
[1] = test system: postural and kinetic deficit compensation in lesioned cat; details: both after IV 28 mg/kg first three days post-lesion and after (IO) 28 mg/kg first 30 days postoperative, vs untreated lesioned animals; cited from earlier work
[2] = test system: unilateral vestibular neurectomy model in the cat; test: Support polygon surface area (postural syndrome), Example 1; format: in vivo; details: for return of support polygon surface area to normal / support polygon surface area compared to control animals: 15 mg/kg/day IV 3 days then 30 mg/kg/day oral; for support polygon surface area compared to control animals: post-lesion (D isomer: two days post-lesion and evolution)
Description: The cats undergo a unilateral vestibular neurectomy on the left side. Surgery is performed using a surgical microscope, under rigorously aseptic conditions, according to a translabyrinthine approach. After incision of the tissues located behind the left auricle of the animal, an opening is made in the tympanic bulla using a diamond drill to give access to the inner ear. The labyrinth cavity is approached by an opening created above the oval window. This precisely-made opening exposes cranial […] which are sectioned at the postganglionic level. The internal auditory meatus is obturated with a cicatrizing gelatin sponge and the surface tissues are restitched. The animals are given analgesics for 48 hours and antibiotics for five days postoperative. The animals are divided into four groups comprising three treatment groups and one untreated control group, as follows: • control group (five cats), untreated after vestibular lesion but receiving a placebo, • experimental group one (four cats), treated with the racemic compound (acetyl-DL-leucine), • experimental group two (four cats), treated with the first enantiomer (acetyl-L-leucine), • experimental group three (four cats), treated with the second enantiomer (acetyl-D-leucine). Pharmacological treatments for experimental groups one, two and three begin on the day of the lesion and continue until complete recovery (45 days for untreated control animals). In these three lesioned groups, treatment is administered by intravenous (IV) route during the first three days post-lesion and is followed by oral route (OR) treatment until recovery is complete. The doses administered are 30 mg/kg/day IV then 60 mg/kg/day OR for the racemate, and 15 mg/kg/day IV then 30 mg/kg/day OR for each of the two enantiomers. For the oral route, the substance is mixed with food; for the IV route, injection takes place after local anesthesia. Support polygon surface area is a good indicator of the degree of postural stability in the cat. In general, it is quite small in the normal animal (roughly 50 cm^2). It increases considerably, by four to eight times, after a unilateral vestibular lesion. This increase in polygon surface area reflects tonic asymmetries in the extensor and flexor muscles of the fore and hind feet and the loss of certain static equilibrium reflexes (Magnus reflexes, for example). Thus, postoperative evolution of this indicator is a good measure of the animal's static equilibrium capacity. In addition, this indicator has prognostic value with respect to dynamic equilibrium performance, as measured by the rotating beam test. Support polygon surface area measurements are taken with the animal in an upright position on all four legs, at rest, using an automated three-dimensional movement analysis system with virtual markers (Codamotion optoelectronic system coupled with a SIMI alignment device). Surface area measurements (in cm^2) taken during the post-lesion period are standardized with respect to pre-lesion values. Thus, each animal acts as its own control (unit equivalent). This method enables direct between-group comparisons and within-group averaging.

[3] = test system: unilateral vestibular neurectomy model in the cat; test: Kinetic equilibrium functioning, rotating beam test, Example 1; format: in vivo; details: for compensation for kinetic equilibrium compared to control animals / return to maximum performance (MP): rotating beam, 15 mg/kg/day IV 3 days then 30 mg/kg/day oral
Description: The cats undergo a unilateral vestibular neurectomy on the left side.
Surgery is performed using a surgical microscope, under rigorously aseptic conditions, according to a translabyrinthine approach. After incision of the tissues located behind the left auricle of the animal, an opening is made in the tympanic bulla using a diamond drill to give access to the inner ear. The labyrinth cavity is approached by an opening created above the oval window. This precisely-made opening exposes cranial […] which are sectioned at the postganglionic level. The internal auditory meatus is obturated with a cicatrizing gelatin sponge and the surface tissues are restitched. The animals are given analgesics for 48 hours and antibiotics for five days postoperative.
The animals are divided into four groups comprising three treatment groups and one untreated control group, as follows: • control group (five cats), untreated after vestibular lesion but receiving a placebo, • experimental group one (four cats), treated with the racemic compound (acetyl-DL-leucine), • experimental group two (four cats), treated with the first enantiomer (acetyl-L-leucine), • experimental group three (four cats), treated with the second enantiomer (acetyl-D-leucine).
Pharmacological treatments for experimental groups one, two and three begin on the day of the lesion and continue until complete recovery (45 days for untreated control animals). In these three lesioned groups, treatment is administered by intravenous (IV) route during the first three days post-lesion and is followed by oral route (OR) treatment until recovery is complete. The doses administered are 30 mg/kg/day IV then 60 mg/kg/day OR for the racemate, and 15 mg/kg/day IV then 30 mg/kg/day OR for each of the two enantiomers. For the oral route, the substance is mixed with food; for the IV route, injection takes place after local anesthesia.
The rotating beam test, as described by Xerri and Lacour (Xerri C, Lacour M: Compensation for postural and kinetic deficits following unilateral vestibular neurectomy in the cat. Role of sensory-motor activity [Compensation des déficits posturaux et cinétiqtues après neurectomie vestibulaire unilatérale chez le chat. Rôle de l'activité sensori-motrice], Acta Otolaryngol (Stockh) (1980) [in French], 90, 414-424) makes it possible to quantify kinetic equilibrium functioning deficits and recovery as a function of postoperative time.
Two compartments are connected by a cylindrical beam 3 m in length and 12 cm in diameter, placed 1.2 m above the floor. The beam can turn around its central axis with linear tangential velocities varying from 0 m/min to 37 m/min. Before the unilateral vestibular lesion (preoperative period), the cats are conditioned to move along this beam. Their maximum performance (MP), which corresponds to the highest beam rotation velocity not causing the animal to fall, is determined for four consecutive tests. In general, eight to 12 daily training sessions of approximately one hour are adequate for the animal to reach its MP. Inter-animal MP variations are relatively small (extreme values recorded: 27 m/min to 37 m/min; mean: 33 m/min; standard deviation: 2.08 m/min). For each cat, MP values obtained following unilateral vestibular neurectomy are expressed as a percentage of MP recorded at the end of training during the preoperative period.

[4] = test system: unilateral vestibular neurectomy model; test: Overall functional restoration in animals having undergone unilateral vestibular neurectomy; format: in vivo, cat; details: present experimental model
Excerpt: The selected experimental model and protocol are recognized in the field of neurosensory research as targeting the study of disorders associated with vertigo crises. The cats undergo a unilateral vestibular neurectomy on the left side. The animals are divided into four groups comprising three treatment groups and one untreated control group, as follows: • control group (five cats), untreated after vestibular lesion but receiving a placebo, • experimental group one (four cats), treated with the racemic compound (acetyl-DL-leucine), • experimental group two (four cats), treated with the first enantiomer (acetyl-L-leucine), • experimental group three (four cats), treated with the second enantiomer (acetyl-D-leucine). Pharmacological treatments for experimental groups one, two and three begin on the day of the lesion and continue until complete recovery (45 days for untreated control animals). In these three lesioned groups, treatment is administered by intravenous (IV) route during the first three days post-lesion and is followed by oral route (OR) treatment until recovery is complete. The doses administered are 30 mg/kg/day IV then 60 mg/kg/day OR for the racemate, and 15 mg/kg/day IV then 30 mg/kg/day OR for each of the two enantiomers. For the oral route, the substance is mixed with food; for the IV route, injection takes place after local anesthesia.

[5] = test system: unilateral vestibular neurectomy model in the cat; test: Post-lesion horizontal spontaneous vestibular nystagmus, Example 1; format: in vivo; details: for nystagmus disappearing / nystagmus frequency compared to control animals: 15 mg/kg/day IV 3 days then 30 mg/kg/day oral
Description: The cats undergo a unilateral vestibular neurectomy on the left side. Surgery is performed using a surgical microscope, under rigorously aseptic conditions, according to a translabyrinthine approach. After incision of the tissues located behind the left auricle of the animal, an opening is made in the tympanic bulla using a diamond drill to give access to the inner ear. The labyrinth cavity is approached by an opening created above the oval window. This precisely-made opening exposes cranial […] which are sectioned at the postganglionic level. The internal auditory meatus is obturated with a cicatrizing gelatin sponge and the surface tissues are restitched. The animals are given analgesics for 48 hours and antibiotics for five days postoperative. The animals are divided into four groups comprising three treatment groups and one untreated control group, as follows: • control group (five cats), untreated after vestibular lesion but receiving a placebo, • experimental group one (four cats), treated with the racemic compound (acetyl-DL-leucine), • experimental group two (four cats), treated with the first enantiomer (acetyl-L-leucine), • experimental group three (four cats), treated with the second enantiomer (acetyl-D-leucine). Pharmacological treatments for experimental groups one, two and three begin on the day of the lesion and continue until complete recovery (45 days for untreated control animals). In these three lesioned groups, treatment is administered by intravenous (IV) route during the first three days post-lesion and is followed by oral route (OR) treatment until recovery is complete. The doses administered are 30 mg/kg/day IV then 60 mg/kg/day OR for the racemate, and 15 mg/kg/day IV then 30 mg/kg/day OR for each of the two enantiomers. For the oral route, the substance is mixed with food; for the IV route, injection takes place after local anesthesia. Recovery of oculomotor functioning is quantified by measuring post-operative regression of spontaneous vestibular nystagmus to light. This nystagmus is recorded in the horizontal plane by a video camera system that records eye movements (SIMI system). Nystagmus frequency is determined by the number of beats per unit time (10 seconds). Recordings are made daily until spontaneous nystagmus disappears.

[6] = test system: unilateral vestibular neurectomy in the cat; test: Compensation of vestibular deficits (support polygon), Example 2; format: in vivo; details: IV during first three days post-lesion
Description: The experiment involves 18 cats from the breeder IFA-CREDO (France). The cats undergo a unilateral vestibular neurectomy of the left side, as in example 1. The animals are divided into three groups comprising one group treated with racemic coumpound (acetyl-DL-leucine) (groups 1) and two treated with acetyl-L-leucine (groups 2 and 3), as follows: • experimental group one (six cats), treated after vestibular lesion with the racemic compound (acetyl-DL-leucine) at 30 mg/kg per day, • experimental group two (six cats), treated after vestibular lesion with the L enantiomer (acetyl-L-leucine) at 15 mg/kg per day, • experimental group three (six cats), treated after vestibular lesion with the L enantiomer (acetyl-L-leucine) at 7.5 mg/kg per day, Pharmacological treatments for experimental groups 1 to 3 begin on the day of the lesion. Treatment is administered by intravenous (IV) route during the first three days post-lesion.

[7] = cat, 15 mg/kg/day IV then 30 mg/kg/day oral
[8] = acetyl-L-leucine used in a 1/2 dose of the racemate

SMILES | shortening of the vestibular compensation time constant [1] [%] | return of support polygon surface area to normal ([2]; cat) [days post-lesion] | support polygon surface area compared to control animals ([2]; cat) | beneficial effect on support polygon parameter [2, 7] | beneficial effect on kinetic equilibrium parameter [3, 7] | compensation for kinetic equilibrium compared to control animals ([3]; cat) | return to maximum performance (MP) ([3]; cat) [days post-lesion] | improvement / restorative activity compared to placebo [4] | nystagmus disappearing ([5]; cat) | nystagmus frequency compared to control animals ([5]; cat) | beneficial effect on nystagmus parameter [5, 7] | activity on compensation for postural deficits relative to acetyl-DL-leucine [2, 8] | activity on compensation for kinetic equilibrium relative to acetyl-DL-leucine [3, 8] | restoration of postural, locomotor and oculomotor functions deteriorated by a vestibular lesion [6] | activity on compensation for ocular nystagmus relative to acetyl-DL-leucine [5, 8]
CC(=O)NC(CC(C)C)C(=O)O (racemic) [acetyl-DL-leucine] | 50 |  |  |  |  |  |  |  |  |  |  |  |  |  | 
CC(=O)N[C@H](CC(C)C)C(=O)O [acetyl-D-leucine] |  | 40 | identical to that observed in the control animals | does not have any beneficial effect | does not have any beneficial effect | identical to that observed in the control animals | 42 | does not provide any improvement compared to a placebo | eight | identical to that of nystagmus observed in the control animals | does not have any beneficial effect |  |  |  | 
CC(=O)N[C@@H](CC(C)C)C(=O)O [acetyl-L-leucine] |  | 16 | significantly smaller |  |  | much more rapid than in the control animals | 18 | restorative activity is only provided by the acetyl-L-leucine isomer | four | lower |  | greater than or equal to that of acetyl-DL-leucine | greater than or equal to that of acetyl-DL-leucine | efficiently restore | greater than or equal to that of acetyl-DL-leucine
